As usually defined, the EC50 is the concentration that produces a half-maximal response. Read a low EC50 as higher potency in that assay.

In BindingDB's records for doi:10.7270/Q2WQ028B (Vanderbilt Screening Center For Gpcrs, Ion Channels and …, 2010) one finds EC50 data, which are given here for three compounds.

The assay has as its target T1, G protein-activated inward rectifier potassium channel 1 (Rattus norvegicus, UniProt P63251).
T1 sequence (P63251 whole entry): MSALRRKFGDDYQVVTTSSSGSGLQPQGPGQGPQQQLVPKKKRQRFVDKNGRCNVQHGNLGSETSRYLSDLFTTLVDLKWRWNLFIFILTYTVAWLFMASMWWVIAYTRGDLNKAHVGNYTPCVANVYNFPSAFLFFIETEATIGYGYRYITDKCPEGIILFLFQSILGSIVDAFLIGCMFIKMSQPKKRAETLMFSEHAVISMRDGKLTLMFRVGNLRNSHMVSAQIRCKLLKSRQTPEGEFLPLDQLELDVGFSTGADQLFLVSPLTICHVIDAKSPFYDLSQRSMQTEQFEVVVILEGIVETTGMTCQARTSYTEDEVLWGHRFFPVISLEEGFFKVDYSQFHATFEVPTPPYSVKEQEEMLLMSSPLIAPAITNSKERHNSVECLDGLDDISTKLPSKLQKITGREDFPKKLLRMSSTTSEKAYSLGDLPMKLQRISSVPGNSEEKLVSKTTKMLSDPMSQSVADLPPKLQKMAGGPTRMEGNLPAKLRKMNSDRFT
In words: alpha2C agonist potency with rauwolscine blockade, dose response, mechanism study for alpha2C adrenergic receptor project, cell-based, thallium flux (AID 435016). To be noted: inactive by the depositor's call.

In turn, `CCSc1nnc(NC(=O)NC(CC)(C(F)(F)F)C(F)(F)F)s1` [1-(5-ethylsulfanyl-1,3,4-thiadiazol-2-yl)-3-[1,1,1-trifluoro-2-(trifluoromethyl)butan-2-yl]urea] had an EC50 of 2.29 µM.
For the compound `O=c1c(-c2ccc3c(c2)OCCO3)c(C(F)(F)F)oc2cc(O)cc(O)c12` [3-(2,3-dihydro-1,4-benzodioxin-6-yl)-5,7-bis(oxidanyl)-2-(trifluoromethyl)chromen-4-one], the EC50 amounted to 12.6 µM.
In turn, `CCOC(=O)c1ccc(NC(=O)NC(C)C2CCCO2)cc1` (stereo not drawn) registered an EC50 of 41.4 µM.
